{"source": "patent US7897780B2", "about": "“Method for controlling phytopathogenic fungi using silylated carboxamides” (Bayer CropScience AG, priority 2004, dated 2011)", "key": {"Alternaria mali": {"tested_on": "Alternaria mali", "test": "In vitro test for the ED50 determination in microorganisms", "type": "cell-based", "details": "50% inhibition of fungal growth, potato dextrose medium, 20° C., 3-5 days, photometric 620 nm, tested at 0.05, 0.5, 5 and 50 ppm", "protocol": "A methanolic solution of the active compound to be tested, admixed with emulsifier PS16, is pipetted into the wells of a microtitre plate. After the solvent has evaporated, 200 μl of potato dextrose medium are added to each well. Beforehand, a suitable concentration of spores or mycelium of the fungus to be tested was added to the medium. The resulting concentrations of active compound are 0.05, 0.5, 5 and 50 ppm. The resulting concentration of the emulsifier is 300 ppm.\nThe plates are then incubated on a shaker at a temperature of 20° C. for 3-5 days, until sufficient growth can be observed in the untreated control.\nEvaluation is carried out photometrically at a wavelength of 620 nm. The dose of active compound which causes 50% inhibition of fungal growth compared to the untreated control (ED50) is calculated from data measured at different concentrations."}, "[1]": {"test": "log P determination by HPLC on reversed-phase column (EEC Directive 79/831 Annex V.A8)", "type": "physicochemical", "details": "reversed-phase C18 HPLC column, pH 2.3, C18, 43° C., 0.1% aqueous phosphoric acid/acetonitrile gradient", "protocol": "The given log P values were determined in accordance with EEC Directive 79/831 Annex V.A8 by HPLC (High Performance Liquid Chromatography) on a reversed-phase column (C 18). Temperature: 43° C. Mobile phases for the determination in the acidic range (pH 2.3): 0.1% aqueous phosphoric acid, acetonitrile; linear gradient from 10% acetonitrile to 90% acetonitrile. Calibration was carried out using unbranched alkan-2-ones (having 3 to 16 carbon atoms) with known logP values (determination of the logP values by the retention times using linear interpolation between two successive alkanones). The lambda max values were determined in the maxima of the chromatographic signals using the UV spectra from 200 nm to 400 nm."}, "Podosphaera leucotricha": {"tested_on": "Podosphaera leucotricha", "test": "Podosphaera test (apple)/protective", "type": "in vivo", "details": "protective spray, application rate 100 g/ha, evaluation 10 days after inoculation", "protocol": "(§1) To produce a suitable preparation of active compound, 1 part by weight of active compound is mixed with the stated amounts of solvents and emulsifier, and the concentrate is diluted with water to the desired concentration.\n(§2) To test for protective activity, young plants are sprayed with the preparation of active compound at the stated application rate. After the spray coating has dried on, the plants are inoculated with an aqueous spore suspension of the apple mildew pathogen Podosphaera leucotricha. The plants are then placed in a greenhouse at about 23° C. and a relative atmospheric humidity of about 70%.\n(§3) Evaluation is carried out 10 days after the inoculation. 0% means an efficacy which corresponds to that of the control, whereas an efficacy of 100% means that no infection is observed."}, "Sphaerotheca fuliginea": {"tested_on": "Sphaerotheca fuliginea", "test": "Sphaerotheca test (cucumber)/protective", "type": "in vivo", "details": "protective spray, application rate 100 g/ha, evaluation 7 days after inoculation", "protocol": "as §1\nas §2, with “Sphaerotheca fuliginea.” for “the apple mildew pathogen Podosphaera leucotricha.”\nEvaluation was carried out 7 days after the inoculation. 0% means an efficacy which corresponds to that of the control, whereas an efficacy of 100% means that no infection is observed."}, "Venturia inaequalis": {"tested_on": "Venturia inaequalis", "test": "Venturia test (apple)/protective", "type": "in vivo", "details": "protective spray, application rate 100 g/ha, evaluation 10 days after inoculation", "protocol": "as §1\nTo test for protective activity, young plants are sprayed with the preparation of active compound at the stated application rate. After the spray coating has dried on, the plants are inoculated with an aqueous conidia suspension of the apple scab pathogen Venturia inaequalis and then remain in an incubation cabin at about 20° C. and 100% relative atmospheric humidity for 1 day.\nThe plants are then placed in a greenhouse at about 21° C. and a relative atmospheric humidity of about 90%.\nas §3"}, "Botrytis cinerea": {"tested_on": "Botrytis cinerea", "test": "Botrytis test (bean)/protective", "type": "in vivo", "details": "protective spray, application rate 500 g/ha, evaluation 2 days after inoculation", "protocol": "as §1\nTo test for protective activity, young plants are sprayed with the preparation of active compound at the stated application rate. After the spray coating has dried on, 2 small pieces of agar colonized by Botrytis cinerea are placed onto each leaf. The inoculated plants are placed in a dark chamber at about 20° C. and 100% atmospheric humidity.\nThe size of the infected areas of the leaves is evaluated 2 days after the inoculation. 0% means an efficacy which corresponds to that of the control, whereas an efficacy of 100% means that no infection is observed."}, "Puccinia recondita": {"tested_on": "Puccinia recondita", "test": "Puccinia test (wheat)/protective", "type": "in vivo", "details": "protective spray, application rate 500 g/ha, evaluation 10 days after inoculation", "protocol": "To produce a suitable preparation of active compound, 1 part by weight of active compound is mixed with the stated amounts of solvent and emulsifier, and the concentrate is diluted with water to the desired concentration.\nTo test for protective activity, young plants are sprayed with the preparation of active compound at the stated application rate. After the spray coating has dried on, the plants are sprayed with a conidia suspension of Puccinia recondita. The plants remain in an incubation cabin at 20° C. and 100% relative atmospheric humidity for 48 hours.\nThe plants are then placed in a greenhouse at a temperature of about 20° C. and a relative atmospheric humidity of 80% to promote the development of rust pustules.\nas §3"}}, "data": [{"smiles": "C[Si](C)(C)CCc1sccc1NC(=O)c1ccccc1C(F)(F)F", "values": [{"measurement": "ED50 value", "setting": "Alternaria mali", "result": "<0.05", "unit": "ppm"}]}, {"smiles": "C[Si](C)(C)CCc1sccc1NC(=O)c1cccnc1Cl", "note": "[Example 1, 2-chloro-N-{2-[2-(trimethylsilyl)ethyl]-3-thienyl}nicotinamide]", "values": [{"measurement": "chromatographic logP", "setting": "[1]", "result": 3.65}]}, {"smiles": "C[Si](C)(C)CCc1sccc1N", "note": "[Example (III-1), 2-(2-trimethylsilanylethyl)thiophen-3-ylamine]", "values": [{"measurement": "chromatographic logP", "setting": "[1]", "result": 1.78}]}, {"smiles": "Cc1nc(C(F)F)c(C(=O)Nc2ccsc2CC[Si](C)(C)C)s1", "note": "[drawing 73]", "values": [{"measurement": "Efficacy in %", "setting": "Podosphaera leucotricha", "result": 100, "unit": "%"}]}, {"smiles": "Cn1cc(C(=O)Nc2ccsc2CC[Si](C)(C)C)c(C(F)(F)F)n1", "note": "[drawing 74]", "values": [{"measurement": "Efficacy in %", "setting": "Podosphaera leucotricha", "result": 100, "unit": "%"}]}, {"smiles": "Cn1cc(C(=O)Nc2ccsc2CC[Si](C)(C)C)c(C(F)F)n1", "note": "[drawing 75]", "values": [{"measurement": "Efficacy in %", "setting": "Podosphaera leucotricha", "result": 100, "unit": "%"}]}, {"smiles": "Cc1nn(C)c(F)c1C(=O)Nc1ccsc1CC[Si](C)(C)C", "note": "[drawing 76]", "values": [{"measurement": "Efficacy in %", "setting": "Podosphaera leucotricha", "result": 100, "unit": "%"}]}, {"smiles": "Cn1cc(C(=O)Nc2ccsc2CC[Si](C)(C)C)c(C(F)(F)F)c1", "note": "[drawing 77]", "values": [{"measurement": "Efficacy in %", "setting": "Podosphaera leucotricha", "result": 99, "unit": "%"}]}, {"smiles": "Cc1nc(C(F)F)c(C(=O)Nc2ccsc2CC[Si](C)(C)C)s1", "note": "[drawing 78]", "values": [{"measurement": "Efficacy in %", "setting": "Sphaerotheca fuliginea", "result": 100, "unit": "%"}]}, {"smiles": "Cn1cc(C(=O)Nc2ccsc2CC[Si](C)(C)C)c(C(F)(F)F)n1", "note": "[drawing 79]", "values": [{"measurement": "Efficacy in %", "setting": "Sphaerotheca fuliginea", "result": 100, "unit": "%"}]}, {"smiles": "Cn1cc(C(=O)Nc2ccsc2CC[Si](C)(C)C)c(C(F)F)n1", "note": "[drawing 80]", "values": [{"measurement": "Efficacy in %", "setting": "Sphaerotheca fuliginea", "result": 100, "unit": "%"}]}, {"smiles": "Cc1nn(C)c(F)c1C(=O)Nc1ccsc1CC[Si](C)(C)C", "note": "[drawing 81]", "values": [{"measurement": "Efficacy in %", "setting": "Sphaerotheca fuliginea", "result": 100, "unit": "%"}]}, {"smiles": "Cn1cc(C(=O)Nc2ccsc2CC[Si](C)(C)C)c(C(F)(F)F)c1", "note": "[drawing 82]", "values": [{"measurement": "Efficacy in %", "setting": "Sphaerotheca fuliginea", "result": 100, "unit": "%"}]}, {"smiles": "Cn1cc(C(=O)Nc2ccsc2CC[Si](C)(C)C)c(I)n1", "note": "[drawing 83]", "values": [{"measurement": "Efficacy in %", "setting": "Sphaerotheca fuliginea", "result": 98, "unit": "%"}]}, {"smiles": "Cc1nc(C(F)F)c(C(=O)Nc2ccsc2CC[Si](C)(C)C)s1", "note": "[drawing 84]", "values": [{"measurement": "Efficacy in %", "setting": "Venturia inaequalis", "result": 100, "unit": "%"}]}, {"smiles": "Cn1cc(C(=O)Nc2ccsc2CC[Si](C)(C)C)c(C(F)(F)F)n1", "note": "[drawing 85]", "values": [{"measurement": "Efficacy in %", "setting": "Venturia inaequalis", "result": 100, "unit": "%"}]}, {"smiles": "Cn1cc(C(=O)Nc2ccsc2CC[Si](C)(C)C)c(C(F)F)n1", "note": "[drawing 86]", "values": [{"measurement": "Efficacy in %", "setting": "Venturia inaequalis", "result": 100, "unit": "%"}]}, {"smiles": "Cc1nn(C)c(F)c1C(=O)Nc1ccsc1CC[Si](C)(C)C", "note": "[drawing 87]", "values": [{"measurement": "Efficacy in %", "setting": "Venturia inaequalis", "result": 100, "unit": "%"}]}, {"smiles": "Cn1cc(C(=O)Nc2ccsc2CC[Si](C)(C)C)c(C(F)(F)F)c1", "note": "[drawing 88]", "values": [{"measurement": "Efficacy in %", "setting": "Venturia inaequalis", "result": 99, "unit": "%"}]}, {"smiles": "Cn1cc(C(=O)Nc2ccsc2CC[Si](C)(C)C)c(I)n1", "note": "[drawing 89]", "values": [{"measurement": "Efficacy in %", "setting": "Venturia inaequalis", "result": 100, "unit": "%"}]}, {"smiles": "Cc1nc(C(F)F)c(C(=O)Nc2ccsc2CC[Si](C)(C)C)s1", "note": "[drawing 90]", "values": [{"measurement": "Efficacy in %", "setting": "Botrytis cinerea", "result": 100, "unit": "%"}]}, {"smiles": "Cn1cc(C(=O)Nc2ccsc2CC[Si](C)(C)C)c(C(F)(F)F)n1", "note": "[drawing 91]", "values": [{"measurement": "Efficacy in %", "setting": "Botrytis cinerea", "result": 100, "unit": "%"}]}, {"smiles": "Cn1cc(C(=O)Nc2ccsc2CC[Si](C)(C)C)c(C(F)F)n1", "note": "[drawing 92]", "values": [{"measurement": "Efficacy in %", "setting": "Botrytis cinerea", "result": 100, "unit": "%"}]}, {"smiles": "Cc1nn(C)c(F)c1C(=O)Nc1ccsc1CC[Si](C)(C)C", "note": "[drawing 93]", "values": [{"measurement": "Efficacy in %", "setting": "Botrytis cinerea", "result": 100, "unit": "%"}]}, {"smiles": "Cn1cc(C(=O)Nc2ccsc2CC[Si](C)(C)C)c(C(F)(F)F)c1", "note": "[drawing 94]", "values": [{"measurement": "Efficacy in %", "setting": "Botrytis cinerea", "result": 100, "unit": "%"}]}, {"smiles": "Cn1cc(C(=O)Nc2ccsc2CC[Si](C)(C)C)c(I)n1", "note": "[drawing 95]", "values": [{"measurement": "Efficacy in %", "setting": "Botrytis cinerea", "result": 100, "unit": "%"}]}, {"smiles": "Cc1nc(C(F)F)c(C(=O)Nc2ccsc2CC[Si](C)(C)C)s1", "note": "[drawing 96]", "values": [{"measurement": "Efficacy in %", "setting": "Puccinia recondita", "result": 100, "unit": "%"}]}, {"smiles": "Cn1cc(C(=O)Nc2ccsc2CC[Si](C)(C)C)c(C(F)(F)F)n1", "note": "[drawing 97]", "values": [{"measurement": "Efficacy in %", "setting": "Puccinia recondita", "result": 100, "unit": "%"}]}, {"smiles": "Cn1cc(C(=O)Nc2ccsc2CC[Si](C)(C)C)c(C(F)F)n1", "note": "[drawing 98]", "values": [{"measurement": "Efficacy in %", "setting": "Puccinia recondita", "result": 100, "unit": "%"}]}, {"smiles": "Cc1nn(C)c(F)c1C(=O)Nc1ccsc1CC[Si](C)(C)C", "note": "[drawing 99]", "values": [{"measurement": "Efficacy in %", "setting": "Puccinia recondita", "result": 100, "unit": "%"}]}, {"smiles": "Cn1cc(C(=O)Nc2ccsc2CC[Si](C)(C)C)c(C(F)(F)F)n1", "note": "[drawing 100]", "values": [{"measurement": "ED50 value", "setting": "Alternaria mali", "result": "<0.05", "unit": "ppm"}]}, {"smiles": "Cc1nc(C(F)F)c(C(=O)Nc2ccsc2CC[Si](C)(C)C)s1", "note": "[drawing 101]", "values": [{"measurement": "ED50 value", "setting": "Alternaria mali", "result": "<0.05", "unit": "ppm"}]}, {"smiles": "C[Si](C)(C)CCc1sccc1NC(=O)c1cccnc1Cl", "note": "[drawing 103]", "values": [{"measurement": "ED50 value", "setting": "Alternaria mali", "result": "<0.05", "unit": "ppm"}]}, {"smiles": "Cn1cc(C(=O)Nc2ccsc2CC[Si](C)(C)C)c(C(F)(F)F)c1", "note": "[drawing 104]", "values": [{"measurement": "ED50 value", "setting": "Alternaria mali", "result": "<0.05", "unit": "ppm"}]}, {"smiles": "Cn1cc(C(=O)Nc2ccsc2CC[Si](C)(C)C)c(C(F)F)n1", "note": "[drawing 105]", "values": [{"measurement": "ED50 value", "setting": "Alternaria mali", "result": "<0.05", "unit": "ppm"}]}]}
